This is an account of results in patent US6130250A, “Veterinary use of a pleuromutilin derivative” (priority 1996, dated 2000).

Assay [1] concerns Serpulina hyodysenteriae. Briefly: MIC determination on agar, 10 S. hyodysenteriae strains. The class given is cell-based.
Assay [2] has as its system S. hyodysenteriae. Briefly: MIC determination by agar dilution, 10 strains from porcine faeces. In kind it is cell-based, Serpulina hyodysenteriae. Conditions: for MIC: Brachyspira hyodysenteriae. Here is the method:
Minimum inhibitory concentrations (MICs) are determined against 10 strains of S. hyodysenteriae isolated from porcine faeces, by the agar dilution method. NCTC (National Collection of Type Cultures) strains or reference strains are used as controls in all MIC tests. The agar medium for S. hyodysenteriae consists of BAB2 (Unipath CM271) containing 7% whole defibrinated sterile sheep blood. All antimicrobial agents are tested in doubling dilutions. Prepared antibiotic dilutions are added to an appropriate volume of MH agar, previously cooled to 50° C., mixed and 20 ml volumes poured. All S. hyodysenteriae incubations are performed in an anaerobic work station at 37° C. (+/-0.5° C.) (Don Whitley Scientific) which provides a strict anaerobic atmosphere comprising 80% nitrogen, 10% hydrogen and 10% carbon dioxide. All other incubations are performed at 37° C. All strains are incubated in an […] atmosphere at 37° C. for 24 hours. The numbers of the organisms are adjusted to an optical density (OD) equivalent to 1×10^8 colony forming units (cfu) per ml, using MH broth as a blank. The antibiotic containing plates are inoculated in duplicate using a multipoint inoculator (Denley Instruments) which delivers a plate inoculum of approximately 1 μl giving an inoculum of 10^4 -10^5 cfu per spot for all strains (Amon, J. Antimicrob. Chemother. 21 [1988] 701-710; Ericsson et al., Acta Pathol. Microbiol. et Immunol. Scand. 217 [1971] (B) Suppl., 1-90). Control plates are incubated under the same conditions as the test plates. The MICs are read after 24 and 48 hours, the latter being the definitive reading. The MIC is defined as the lowest concentration of antibiotic on which there is no growth, disregarding a single colony or a faint haze caused by the inoculum (National Committee for Clinical Laboratory Standards [1989], Antimicrobial Susceptibility Testing, NCCLC Publications SC3, Villanova, Pa., USA).
Background: In agar dilution, organisms are placed on agar that contains the substance at set levels.

The subject of assay [3] is S. hyodysenteriae. Kind of assay: Challenge trial: prevention of swine dysentery. The class given is in vivo, pigs. As to conditions: for pigs with S. hyodysenteriae isolated: rectal swabs. The procedure: Two trials were effected where valnemulin fed at various inclusion levels is compared to tiamulin for the prevention of swine dysentery. The severity of disease is assessed by the evidence of clinical disease as determined by clinical scores for body condition, faeces consistency and composition. The excretion of Serpulina hyodysenteriae in faeces, lesions at post-mortem examination, growth rate and feed conversion ratio are also determined.
In the first trial valnemulin hydrochloride fed at 20, 30 and 40 ppm is compared with tiamulin hydrogen fumarate fed at 30 ppm and with unmedicated controls. Five groups of 9 (5 to 6 week old) conventionally reared pigs are used for each treatment group. The pigs are fed unmedicated food for 14 days, then challenged with the standard strain of S. hyodysenteriae (P18A). Challenge is by the oral route on two consecutive days. The medicated feed is introduced on the day after the second challenge. In the second trial a similar procedure is followed except that 4 groups of approximately 9 pigs were used. These are fed valnemulin hydrochloride at 5, 10 and 20 ppm and compared to unmedicated controls. In this trial the pigs used are from an outdoor reared herd and are challenged with a strain of S. hyodysenteriae isolated from an outdoor herd and previously shown to be capable of causing swine dysentery. In both trials the evidence of clinical disease is assessed daily and a clinical score assigned, rectal swabs are taken twice weekly for isolation of S. hyodysenteriae and all pigs are weighed at regular intervals. Food intake is also recorded. A post-mortem examination is carried out 21 days after challenge and the large intestine examined for the presence of lesions. Mucosal scrapings are also taken from 4 areas in the large intestine and cultured for S. hyodysenteriae.

Assay [4] has as its system Haemophilus parasuis. Briefly: MIC against Haemophilus parasuis isolates. In kind it is cell-based. Conditions: for MIC: Glaesserella parasuis, 3 isolates. The procedure: The minimal inhibitory concentration (MIC) of valnemulin hydrochloride against recent isolates of Pasteurelia multocida, Haemophilus pleuropneumoniae and Haemophilus parasuis originating from porcine respiratory material is determined and compared with tiamulin. […] Three of the Pasteurella isolates were toxigenic strains of Pasteurella multocida. For H. pleuropneumoniae and H. parasuis, on the day before testing a single loopful of each of the pure cultures is inoculated into 10 ml of Todd & Hewitt broth (Unipath CM190) containing 1% donor calf serum and 2 mg per ml of nicotinamide adenine dinucleotide (NAD). For P. multocida, […] a single loopful of each of the pure cultures is inoculated into 10 ml of nutrient broth No. 2 (Unipath CM67) containing 1% donor calf serum. Each of the prepared broth cultures are incubated for 18 hours at 37° C. in 10% CO2. […] For each test compound, standard control cultures of Oxford Staphylococcus aureus NCTC 6571 are also set up to validate the results of the MIC tests. In each case, broth cultures set up from the control organisms are identical to those of the organisms under test. Valnemulin is a hydrochloride, tiamulin is used as the hydrogen fumarate. […] Sensitised agar (Oxoid CM409) containing lysed horse blood (Oxoid SR50) is prepared according to the manufacturer's recommendations and adjusted to pH 7.4 it necessary. […] Four replicate plates are prepared from each dilution. […] After inoculation the growth of the organisms is examined initially by eye followed by microscopic examination on a stereo zoom microscope. The MIC value is taken as the lowest concentration of test compound at which no growth can be detected at the point of inoculation on all four plates by microscopic examination.

[5] abbreviates: first trial, valnemulin 20 and 40 ppm.

Structures can show the parent of a compound that is named as a salt. Where two headings read alike, the source gives them in different places.

As to `C=C[C@]1(C)C[C@@H](OC(=O)CSCCN(CC)CC)[C@]2(C)[C@H](C)CC[C@]3(CCC(=O)[C@H]32)[C@@H](C)[C@@H]1O` [tiamulin hydrogen fumarate], in assay [1] (10 S. hyodysenteriae strains), the “number of strains with MIC 0.125 μg/ml” value is recorded as 6, the “number of strains with MIC 0.250 μg/ml” value is recorded as 1, the “number of strains with MIC 0.500 μg/ml” value is reported as 1 and the “number of strains with MIC 1 μg/ml” value is recorded as 2. Also, the MIC (in general, the least concentration at which growth counts as inhibited) in assay [2] was 0.3 µg/mL. For the same compound, in assay [3] (first trial, tiamulin 30 ppm), the “pigs with S. hyodysenteriae isolated” value amounted to 2, the “isolation of S. hyodysenteriae from mucosal scrapings” value was “isolated from mucosal scrapings taken from all of these affected animals”, the “post-mortem lesions in pigs with clinical signs” value is listed as “typical lesions of swine dysentery” and the “post-mortem lesions in pigs without previous clinical signs” value is on record as “one pig”. The “animals with clinical disease” value in assay [3] (first trial, tiamulin 30 ppm in feed) is 2 out of 9. In addition, in assay [3] (first trial, tiamulin 30 ppm, control 36), the “mean clinical score per pig” value is reported as 6. The “prevention of swine dysentery in words” value in assay [3] (tiamulin 30 ppm in feed) is “did not prevent swine dysentery but reduced the incidence of disease”. Also, the MIC in assay [4] (18 h, read-out: MIC mean) stood at 0.7 µg/mL. In assay [4] (read-out: MIC range), the MIC is 0.5 to 1 µg/mL.

For `C=C[C@]1(C)C[C@@H](OC(=O)CSC(C)(C)CNC(=O)[C@H](N)C(C)C)[C@]2(C)[C@H](C)CC[C@]3(CCC(=O)[C@H]32)[C@@H](C)[C@@H]1O` [valnemulin hydrochloride, 14-O-[1-[(R)-2-amino-3-methylbutyrylamino]-2-methylpropan-2-ylthioacetyl]mutilin], in assay [1] (10 S. hyodysenteriae strains), the “number of strains with MIC 0.0156 μg/ml” value is on record as 2, the “number of strains with MIC 0.0312 μg/ml” value is on record as 4 and the “number of strains with MIC 1 μg/ml” value is on record as 1. The “MIC times less than those of tiamulin” value in assay [1] (S. hyodysenteriae strains) was 2-32 times. Moreover, the “susceptibility of S. hyodysenteriae strains” value in assay [1] (all strains) was “highly susceptible”. The compound further had an MIC in assay [2] of 0.1 µg/mL. Further, the “susceptibility of S. hyodysenteriae strains” value in assay [2] (all strains) was “susceptible”. In assay [2] (vs tiamulin, lincomycin, tylosin, dimetridazole), the “most active of the agents tested by” value is given as 3-600 fold. In addition, in assay [3] (first trial, valnemulin 30 ppm), the “pigs with S. hyodysenteriae isolated” value is listed as 2 pigs, the “isolation of S. hyodysenteriae from mucosal scrapings” value was “not isolated from mucosal scrapings” and the “pigs with post-mortem lesions” value is given as “One pig”. For the same compound, in assay [3] (setting [5]), the “isolation of S. hyodysenteriae” value is “not isolated” and the post-mortem lesions entry is on record as “Lesions were not seen”. The evidence of disease entry in assay [3] (first trial, valnemulin 20 and 40 ppm in feed) was “Evidence of disease was not seen”. Besides, the “pigs with clinical disease” value in assay [3] (first trial, valnemulin 30 ppm in feed) turned out to be 1 pig. In assay [3] (in feed), the “inclusion rate down to which effective in preventing swine dysentery” value is recorded as 10 ppm. In assay [3] (second trial, 5 ppm), the animals affected is on record as 5 out of 10; the “p of mean clinical score vs controls” value is recorded as under 0.005; the “p of numbers affected vs controls” value is under 0.05; the “p, heavier than controls at end of trial” value is reported as 0.05. Further, in assay [3] (second trial, 5 ppm, no clinical signs), the “other animals with lesions and S. hyodysenteriae in mucosal scrapings” value is 2 animals. The “pigs with post-mortem lesions” value in assay [3] (second trial, 5 ppm, of 5 pigs with previous signs, S. hyodysenteriae not isolated) is listed as 2. Also, in assay [3] (second trial, 5 ppm, of the 5 animals affected), the “pigs with S. hyodysenteriae isolated from rectal swabs” value is 2. Also, the mean clinical score in assay [3] (second trial, 5 ppm, control 77) was determined as 11. Besides, the “first clinical signs after challenge” value in assay [3] (second trial, 5 ppm, control 5 days) came out at 8 days. Also, the “p, heavier than controls at end of trial” value in assay [3] (second trial, 10 and 20 ppm) is under 0.05. Further, in assay [3] (second trial, 10 or 20 ppm), the “clinical signs of disease” value is listed as “not seen”, the “isolation of S. hyodysenteriae” value is reported as “not isolated” and the post-mortem lesions result is on record as “Lesions were not seen”. The “prevention of swine dysentery in words” value in assay [3] (valnemulin 5 ppm in feed) is recorded as “did not completely prevent clinical disease or the shedding of spirochaetes”. Moreover, the “prevention compared with tiamulin” value in assay [3] (valnemulin 10 ppm in feed) was “clearly more effective than Tiamulin at 30 ppm”. In assay [4] (18 h, read-out: MIC mean), the MIC worked out at 0.25 µg/mL. Besides, the MIC in assay [4] (read-out: MIC range) was 0.25 µg/mL. The “mean increase in activity compared with tiamulin” value in assay [4] (H. parasuis) is listed as “three fold”.
